# Reference: ChEMBL document CHEMBL1201862, “PubChem BioAssay data set” (2004)
#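 Step 1: Grow cells in 96-well plates. Step 2: Expose to compound for 48 hours at 5 concentrations. Step 3: Interpolate endpoints linearly; if unreached, use highest concentration. GI50 marks 50% less growth.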 Calls of active or inactive are those of the source. Rule as the data show it: active = GI50 up to about 1.1 µM and inactive = higher.
# What was measured:
# Experiment in all cases: NCI-60 cell line screen, 48 h
# [1] = tested on: SF-295
# [2] = tested on: NCI/ADR-RES
# [3] = tested on: SR
# [4] = tested on: SF-539
# [5] = tested on: HCT-15
# [6] = tested on: SF-268
# [7] = tested on: EKVX
# [8] = tested on: OVCAR-4
# [9] = tested on: UACC-62
# [10] = tested on: COLO 205
# [11] = tested on: CAKI-1
# [12] = tested on: T47D
# [13] = tested on: NCI-H226
# [14] = tested on: Malme-3M
# [15] = tested on: UO-31
# [16] = tested on: SNB-19
# [17] = tested on: A549
# [18] = tested on: MDA-MB-231
# [19] = tested on: A498
# [20] = tested on: SNB-75
SMILES,GI50 [1],GI50 [2],GI50 [3],GI50 [4],GI50 [5] [µM],GI50 [6],GI50 [7],GI50 [8],GI50 [9],GI50 [10],GI50 [11],GI50 [12],GI50 [13],GI50 [14],GI50 [15],GI50 [16],GI50 [17],GI50 [18],GI50 [19],GI50 [20]
O=C1NN=C2C=C(c3ccc(Cl)cc3)CC(c3cccc(Cl)c3)C12 (stereo unspecified),18.7 µM (inactive),39 µM (inactive),18.2 µM (inactive),24.5 µM (inactive),13.9,23.1 µM (inactive),22.1 µM (inactive),17.2 µM (inactive),15.8 µM (inactive),16.8 µM (inactive),34.8 µM (inactive),60.7 µM (inactive),20.4 µM (inactive),37.2 µM (inactive),19.3 µM (inactive),15.1 µM (inactive),16.4 µM (inactive),17.7 µM (inactive),–,–
O=[N+]([O-])c1cccc(-c2ncnc(-c3cccc([N+](=O)[O-])c3)n2)c1,41.6 µM (inactive),> 100 µM (inactive),–,–,–,54 µM (inactive),> 100 µM (inactive),–,27.4 µM (inactive),> 100 µM (inactive),18.4 µM (inactive),81.8 µM (inactive),> 100 µM (inactive),> 100 µM (inactive),> 100 µM (inactive),–,> 100 µM (inactive),34.9 µM (inactive),23.9 µM (inactive),26.7 µM (inactive)
O=C1c2ccccc2C(=O)c2c(NCCCN3CCOCC3)ccc(NCCCN3CCOCC3)c21,1.94 µM (inactive),–,5.57 µM (inactive),1.82 µM (inactive),2.55,2.75 µM (inactive),11 µM (inactive),2.67 µM (inactive),2.03 µM (inactive),–,4.45 µM (inactive),29.3 µM (inactive),6.59 µM (inactive),8.89 µM (inactive),3.01 µM (inactive),5.3 µM (inactive),4.18 µM (inactive),3.08 µM (inactive),12 µM (inactive),2.29 µM (inactive)
C=C(CC[C@@H](C(=O)O)[C@H]1[C@H](O)C[C@@]2(C)C3=CC[C@@H](C(=C)C)[C@](C)(CCC(=O)O)C3=CC[C@]12C)C(C)C [PORICOIC ACID A],17.5 µM (inactive),19.7 µM (inactive),–,20 µM (inactive),17.2,–,17.6 µM (inactive),21.1 µM (inactive),15.3 µM (inactive),23.1 µM (inactive),15.2 µM (inactive),23.8 µM (inactive),19.7 µM (inactive),22.5 µM (inactive),17.2 µM (inactive),17.7 µM (inactive),18.7 µM (inactive),20.8 µM (inactive),23.6 µM (inactive),20.4 µM (inactive)
C=CCOCn1ccc(NC(=O)c2ccccc2)nc1=O,> 100 µM (inactive),–,> 100 µM (inactive),> 100 µM (inactive),> 100,> 100 µM (inactive),> 100 µM (inactive),–,> 100 µM (inactive),> 100 µM (inactive),> 100 µM (inactive),> 100 µM (inactive),> 100 µM (inactive),> 100 µM (inactive),> 100 µM (inactive),> 100 µM (inactive),> 100 µM (inactive),> 100 µM (inactive),> 100 µM (inactive),> 100 µM (inactive)
CC1(C)[C@@H]2CC[C@]1(C)[C@H](OC(=O)CSC#N)C2,> 100 µM (inactive),> 100 µM (inactive),–,28.7 µM (inactive),> 100,> 100 µM (inactive),> 100 µM (inactive),> 100 µM (inactive),> 100 µM (inactive),> 100 µM (inactive),> 100 µM (inactive),> 100 µM (inactive),> 100 µM (inactive),> 100 µM (inactive),39.1 µM (inactive),> 100 µM (inactive),> 100 µM (inactive),> 100 µM (inactive),> 100 µM (inactive),> 100 µM (inactive)
Cc1c(-c2nc3ccccc3[nH]2)c(=O)n(-c2ccccc2)n1C,> 100 µM (inactive),> 100 µM (inactive),–,> 100 µM (inactive),> 100,> 100 µM (inactive),> 100 µM (inactive),> 100 µM (inactive),> 100 µM (inactive),> 100 µM (inactive),> 100 µM (inactive),> 100 µM (inactive),> 100 µM (inactive),> 100 µM (inactive),> 100 µM (inactive),> 100 µM (inactive),> 100 µM (inactive),> 100 µM (inactive),–,> 100 µM (inactive)
CCCCCCCCCCCCCCN [TETRADECYLAMINE],> 100 µM (inactive),> 100 µM (inactive),–,–,> 100,> 100 µM (inactive),> 100 µM (inactive),> 100 µM (inactive),> 100 µM (inactive),> 100 µM (inactive),> 100 µM (inactive),> 100 µM (inactive),–,> 100 µM (inactive),–,–,–,> 100 µM (inactive),> 100 µM (inactive),> 100 µM (inactive)
CO[P@]1(=O)O[C@@H](c2ccccc2)[C@H](O)[C@]1(O)c1ccccc1,> 100 µM (inactive),> 100 µM (inactive),–,> 100 µM (inactive),> 100,> 100 µM (inactive),> 100 µM (inactive),> 100 µM (inactive),> 100 µM (inactive),> 100 µM (inactive),> 100 µM (inactive),> 100 µM (inactive),> 100 µM (inactive),> 100 µM (inactive),> 100 µM (inactive),> 100 µM (inactive),> 100 µM (inactive),> 100 µM (inactive),> 100 µM (inactive),> 100 µM (inactive)
CCOC(=O)C1=COC(C)(c2ccccc2)CC1=O (stereo unspecified),> 100 µM (inactive),> 100 µM (inactive),–,> 100 µM (inactive),> 100,> 100 µM (inactive),> 100 µM (inactive),> 100 µM (inactive),> 100 µM (inactive),> 100 µM (inactive),> 100 µM (inactive),> 100 µM (inactive),–,–,> 100 µM (inactive),> 100 µM (inactive),> 100 µM (inactive),> 100 µM (inactive),> 100 µM (inactive),> 100 µM (inactive)
O=C(CCN1CCOCC1)c1ccc(Oc2ccc(F)cc2)cc1,> 100 µM (inactive),26.9 µM (inactive),–,17.9 µM (inactive),19,–,19 µM (inactive),33.6 µM (inactive),18.6 µM (inactive),23 µM (inactive),18 µM (inactive),18.9 µM (inactive),26 µM (inactive),20.4 µM (inactive),19.7 µM (inactive),> 100 µM (inactive),> 100 µM (inactive),19.6 µM (inactive),> 100 µM (inactive),19.6 µM (inactive)
Cn1c(=O)c2c(ncn2CCSS(=O)(=O)O)n(C)c1=O,> 100 µM (inactive),> 100 µM (inactive),–,> 100 µM (inactive),> 100,> 100 µM (inactive),72.6 µM (inactive),> 100 µM (inactive),53.2 µM (inactive),> 100 µM (inactive),> 100 µM (inactive),> 100 µM (inactive),> 100 µM (inactive),> 100 µM (inactive),> 100 µM (inactive),> 100 µM (inactive),> 100 µM (inactive),45.9 µM (inactive),> 100 µM (inactive),38.5 µM (inactive)
COc1ccc(/N=N/N2CCCC2)cc1,> 100 µM (inactive),–,48.3 µM (inactive),29.8 µM (inactive),22.6,31.8 µM (inactive),19.7 µM (inactive),18.6 µM (inactive),30.9 µM (inactive),17.9 µM (inactive),16.2 µM (inactive),18.3 µM (inactive),> 100 µM (inactive),17.6 µM (inactive),31.9 µM (inactive),> 100 µM (inactive),> 100 µM (inactive),20.5 µM (inactive),> 100 µM (inactive),–
O=c1[nH]nc(Cc2ccccc2)[nH]1,> 100 µM (inactive),> 100 µM (inactive),44.6 µM (inactive),> 100 µM (inactive),> 100,> 100 µM (inactive),> 100 µM (inactive),> 100 µM (inactive),> 100 µM (inactive),> 100 µM (inactive),> 100 µM (inactive),> 100 µM (inactive),> 100 µM (inactive),> 100 µM (inactive),> 100 µM (inactive),> 100 µM (inactive),> 100 µM (inactive),–,> 100 µM (inactive),> 100 µM (inactive)
CCOC(=O)CCC(C(=O)OCC)n1nnc2ccc(Nc3c(C)[n+]([O-])c4ccc(Cl)cc4[n+]3[O-])cc21 (stereo unspecified),27.8 µM (inactive),28.3 µM (inactive),33 µM (inactive),38.5 µM (inactive),27.9,23.5 µM (inactive),17.1 µM (inactive),33.8 µM (inactive),30.4 µM (inactive),37.4 µM (inactive),49.2 µM (inactive),34 µM (inactive),22.4 µM (inactive),> 100 µM (inactive),42.2 µM (inactive),> 100 µM (inactive),57.3 µM (inactive),–,> 100 µM (inactive),31.4 µM (inactive)
COc1cc2c(c(O)c1OC)-c1c(cc(OC)c(OC)c1OC)CC(C)C(C)C2 (stereo unspecified) [GOMISIN K3],33.9 µM (inactive),–,31.3 µM (inactive),66.1 µM (inactive),33,78 µM (inactive),47.3 µM (inactive),30.3 µM (inactive),43.1 µM (inactive),32 µM (inactive),42.8 µM (inactive),30.4 µM (inactive),42.8 µM (inactive),68.7 µM (inactive),29.4 µM (inactive),60.8 µM (inactive),43.7 µM (inactive),37.8 µM (inactive),35.1 µM (inactive),34.3 µM (inactive)
